In brackets after ≈: the same amount, converted by molar mass. Like-named read-outs stand apart in the source and are kept apart here.
System: Pseudomonas aeruginosa
Experiment: standard agar inclusion test screen, minimum inhibitory concentration against Pseudomonas
Format: cell-based
Conditions: read-out: Minimum inhibitory concentrations (MIC)
Protocol: Compounds of this invention where R, R', R" and Y are hydrogen have antibacterial activity against a variety of bacteria and are especially active against Pseudomonas. Minimum inhibitory concentrations (MIC), as obtained in a standard agar inclusion test screen, range from 25 to 200 μg/ml against Pseudomonas aeruginosa.

[1] = standard agar inclusion test, Pseudomonas (aeruginosa)

Row | MIC [1] [µg/mL] | Compound | MIC (Pseudomonas aeruginosa) [µg/mL]
1 | 63 (≈ 186 µM) | NC[C@H]1O[C@H](O[C@H]2[C@H](O)[C@@H](O)[C@H](N)C[C@@H]2N)[C@H](N)[C@@H](S)[C@@H]1O [2-deoxy-4-O-(2,6-diamino-3-mercapto-2,3,6-trideoxy-α-D-glucopyranosyl)-D-streptamine] | –
2 | – | NC[C@H]1O[C@H](O[C@H]2[C@H](O)[C@@H](O)[C@H](N)C[C@@H]2N)[C@H](N)[C@@H](O)[C@@H]1O [neamine, 2-deoxy-4-O-(2,6-diamino-2,6-dideoxy-α-D-glucopyranosyl)-D-streptamine, reference compound] | > 200
3 | 25 (≈ 73.9 µM) | NC[C@H]1O[C@H](O[C@H]2[C@H](O)[C@@H](O)[C@H](N)C[C@@H]2N)[C@H](N)[C@@H](O)[C@@H]1S [2-deoxy-4-O-(2,6-diamino-4-mercapto-2,4,6-trideoxy-α-D-glucopyranosyl)-D-streptamine] | –
